Experimental data from patent US20240197687A1, “METHODS OF TREATING NEUROINFLAMMATION AND INHIBITING MONOAMINE OXIDASE-A AND RESTORING/UPREGULATING/INCREASING IL-13 AND AND PGC-1 BY ADMINISTERING ORAL DOSAGE FORM CONTAINING MICRONIZED AND NONMICRONIZED PARTICULATE METAXALONE, ALGINIC ACID AND PROPYLENE GLYCOL ALGINATE” (Primus Pharmaceuticals, Inc., priority 2022, published 2024).

Key:
HMC3 microglial cells = test: Western blot protein levels in IL-1β-stimulated HMC3 cells; type: cell-based, Human; settings: metaxalone 10, 20, 40 μg/mL, p<0.0001 vs. IL-1β
Procedure: Western Blot Analysis. HMC3 cells were homogenized in RIPA buffer (25 mM Tris/HCl, pH 7.4; 1.0 mM EGTA; and 1.0 mM EDTA) with 1% of NP40, 0.5% of phenyl methylsulfonyl fluoride (PMSF), aprotinin, and leupeptin and pepstatin (10 μg/mL each) to perform protein extraction. Lysates were centrifuged at 15,000×g for 15 min at 4° C. and the supernatant was collected for protein determination using a specific kit (Bio-Rad DC; Bio-Rad, Richmond, CA, USA). Samples were denatured in a reducing buffer (62 mM Tris pH 6.8, 10% glycerol, 2% SDS, 5% β-mercaptoethanol, and 0.003% bromophenol blue) and proteins were separated by electrophoresis on SDS polyacrylamide gels. Following electrophoresis, samples were transferred onto a PVDF membrane (Amersham, Little Chalfont, UK) in a transfer buffer (39 mM glycine, 48 mM Tris pH 8.3, and 20% methanol) at 200 mA for 1 h. The obtained membranes were incubated with 5% non-fat dry milk in TBS/0.1% Tween for 1 h at room temperature, washed 3 times in TBS/0.1% Tween, and incubated with primary antibodies to detect pNF-κB, PPARγ, PGC-1α (Cell Signaling, Danvers, MA, USA), NRF-2, and MAO-A (Abcam, Cambridge, UK), diluted in TBS/0.1% Tween overnight at 4° C. The day after, following 3 washes with TBS/0.1% Tween, membranes were incubated with secondary peroxidase-conjugated goat anti-mouse and anti-rabbit antibodies (KPL, Gaithersburg, MD, USA) for 1 h at room temperature. After washing, membranes were analyzed by the enhanced chemiluminescence system (LumiGlo reserve; Seracare, Milford, MA, USA). The protein signal was detected and quantified by scanning densitometry using a bio-image analysis system (C-DiGit, Li-cor, Lincoln, NE, USA). The results were expressed as relative integrated intensity and β-actin (Cell Signaling, Danvers, MA, USA) was used to confirm equal protein loading. (See, […]. et al. β-Caryophyllene Inhibits Cell Proliferation through a Direct Modulation of CB2 Receptors in Glioblastoma Cells. Cancers 2020, 12, 1038).

[1] = system: CYP1A2, CYP2B6, CYP2C9, CYP2C19, CYP2D6, CYP2E1, CYP3A; settings: cited from earlier work
MAO-A = target: T1, MAO-A (Homo sapiens, UniProt P21397); test: MAO-A activity assay (MAO-GLO bioluminescent) in IL-1β-stimulated microglial cells; type: cell-based; settings: chemiluminescence assay, metaxalone 10, 20, 40 μg/mL, dose-dependent, p<0.0001 vs. IL-1β
T1 construct: MAO-A was constitutively expressed in microglia cells; endogenous in cells; host or cells: HMC3 human microglial cells
T1 sequence (P21397 1-527): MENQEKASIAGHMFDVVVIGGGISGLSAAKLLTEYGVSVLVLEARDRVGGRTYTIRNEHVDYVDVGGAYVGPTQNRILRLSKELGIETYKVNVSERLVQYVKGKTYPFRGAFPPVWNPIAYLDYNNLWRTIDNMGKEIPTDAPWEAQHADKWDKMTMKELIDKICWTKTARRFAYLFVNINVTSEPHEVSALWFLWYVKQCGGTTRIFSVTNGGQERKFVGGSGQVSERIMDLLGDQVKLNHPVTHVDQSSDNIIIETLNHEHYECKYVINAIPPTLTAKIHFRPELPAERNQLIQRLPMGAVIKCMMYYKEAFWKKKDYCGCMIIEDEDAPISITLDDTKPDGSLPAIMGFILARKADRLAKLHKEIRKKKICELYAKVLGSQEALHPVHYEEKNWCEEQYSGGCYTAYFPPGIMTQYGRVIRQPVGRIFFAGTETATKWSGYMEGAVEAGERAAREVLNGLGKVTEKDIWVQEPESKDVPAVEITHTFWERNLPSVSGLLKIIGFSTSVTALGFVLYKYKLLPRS
Procedure: MAO-A Activity Assay. MAO-A activity was evaluated by a two-step bioluminescent assay methodology, as previously described (See, Lin, Y. C. et al., MAO-A novel decision maker of apoptosis and autophagy in hormone refractory neuroendocrine prostate cancer cells. Sci. Rep. 2017, 7, 46338) using a MAO-GLO™ assay kit from Promega (Madison, WI, USA). The produced amount of signal (light intensity) was measured using a microplate luminometer (Multilabel Counter Victor3™, PerkinElmer Life Sciences). Human recombinant MAO-A enzyme was used as a positive control. The results are given as relative light units after the background was subtracted.

For `Cc1cc(C)cc(OCC2CNC(=O)O2)c1` (centres unmarked) [metaxalone, 5-[(3,5-dimethylphenoxy)methyl]-2-oxazolidinone], the NRF-2 protein levels (HMC3 microglial cells; dose-dependent) was “significantly increased”, the PGC-1α protein expression (HMC3 microglial cells) was “stimulated” and the PPARγ protein expression (HMC3 microglial cells) was “stimulated”. For the same compound, the p-NF-κB protein levels (HMC3 microglial cells) was “blunted the increase”, the CYP induction [1] was “inducer of CYP1A2 and CYP3A4” and the CYP inhibition [1] was “inhibitor of CYP1A2, CYP2B6, CYP2C9, CYP2C19, CYP2D6, CYP2E1, and CYP3A”. For the same compound, the CYP substrate status [1] was “substrate of CYP1A2 and CYP2C19” and the MAO-A activity (MAO-A) was “suppressed”.
